Data taken from US11376203B2, “Hair treatment composition” (Conopco, Inc., priority 2017, dated 2022).

Experiments:
[1] = Hair switch volume reduction benefit after subsequent washing; conditions: switches from Example 1 subsequently washed, images captured; compared to control
Experimental: (§1) Dark brown European wavy hair switches of length 25 cm and weight 2 gms, were treated as follows:
(§2) At the end of the soaking period, the switches were left to dry at 20° C. and 50% RH. When dried, the switches were straightened with 5 passes of FHI irons (FHI Brands, 29003 Avenue Sherman Valencia, Calif. 91355 USA). The switches were then placed in a humidity chamber ˜30 C/80% RH for 1 hour and images were captured and analyzed.
The switches from the above example were subsequently washed and the images were captured. […] The corresponding benefits for glycine was only −10%.

[2] = Hair switch shape and frizz control (volume) after straightening and exposure to high humidity; conditions: After 1 hour at high humidity (30 C./80% RH); switches soaked 30 minutes in 1% aqueous solution, dried, straightened with 5 passes of irons; volume vs water control
Experimental: as §1
Control: After initial washing, soaked for 30 minutes in water
Comparative Example A: After initial washing, soaked for 30 minutes in aqueous solution of 1% glycine
Example 1: soaked for 30 minutes in aqueous solution of 1% N-formyl glycine
as §2

Compound	benefit over control (volume reduction) after washing [1] [%]	% shape and frizz control benefit against control [2] [%]
O=CNCC(=O)O [Example 1, N-formyl glycine]	32	30
NCC(=O)O [Comparative Example A, glycine]	−10	−6
